Assays:
Type in all cases: cell-based
[1] = system: DLD-1, DLD-1 BRCA2KO, SUM149PT, MDA-MB-436 cells; experiment: Cell cycle analysis by immunofluorescence (PCNA/DAPI)
Protocol: Cells were seeded at a density of 10 000 cells per well in 100 μl of media in collagen-coated 96-well plates (Revvity, #6055700). Twenty-four hours after seeding, cells were treated with the indicated doses of MSC2798778, MSC2798781, or DMSO (Apollo Scientific, BID1200) using a D300e digital dispenser (Tecan) for 24 h. Cells were washed with PBS and fixed in 4% PFA (ChemCruz, sc-281692) for 10 min at room temperature.
(§1) For immunofluorescence staining, cells were washed with PBS then blocked and permeabilized with PBS containing 0.5% BSA and 0.5% Triton X-100 (blocking buffer) for 45 min at room temperature. Cells were then stained with the indicated markers by incubation with primary antibodies (Supplementary Table S5) diluted in the blocking buffer, overnight at 4°C. […]
• Foci were quantified by setting up a contrast threshold higher than the background signal. • pKAP1 positive cells were selected using a mean intensity threshold. • Cell cycle analysis was performed by defining gates on a bivariate plot of DAPI total nuclear intensity and PCNA mean nuclear intensity. PCNA positive cells were scored as cells in S-phase. G1 and G2/M cells were scored as PCNA negative cells with differential DNA content. • PARylation and replication levels were quantified by measuring the mean nuclear fluorescence intensity, in PCNA positive cells, of poly/mono-ADP ribosylation and EdU, respectively.

DLD-1 BRCA2KO cells = experiment: Cell viability assay (AlamarBlue), 7 days
Protocol: Cells were seeded in 96-well plates and treated the day after seeding with a serial dilution of compounds in technical duplicates. After 7 days, viability was analyzed using the AlamarBlue reagent (BioRad). AlamarBlue was added in an amount equal to 10% of the volume in the well and after a 4–6 h incubation viability was determined by fluorescence analysis using a standard plate reader. Fluorescence was normalized to vehicle treated control for each cell line, and data were fitted in Genedata Screener to generate compound sensitivity curves and determine IC50 or EC50 (half maximal inhibitory/effective concentration) values as indicated.

[2] = system: MMEJ (resection independent reporter); experiment: Extrachromosomal MMEJ reporter assay, resection independent, HEK-293
Protocol: MMEJ resection-independent and MMEJ resection-dependent reporter assays performed as previously described. In brief, HEK-293 cells were resuspended in supplemented SF nucleofection solution (Lonza) containing nanoluciferase DNA substrate and Firefly luciferase plasmid (Promega) at a ratio of 100 μl SF: 1500 ng nanoluciferase substrate: 1000 ng Firefly plasmid: ∼1.5 × 10^6 cells. Cells were electroporated and recovered into fresh media before seeding into a 96-well plate pre-dosed with compounds and DMSO control.
After 24 h, Firefly and NanoLuc levels were detected using the Nano-Glo® Dual-Luciferase® Reporter Assay system (Promega) as per the manufacturer’s instructions. NanoLuc luminescence (reporter) was normalized to Firefly luminescence (control) to determine substrate repair. Percentage repair was calculated relative to the DMSO control.

[3] = system: FEN1 chromatin enrichment in HeLa cells; experiment: Chromatin retention assay (immunofluorescence, CSK-extracted cells); settings: 24 h treatment
Protocol: HeLa cells were seeded at a density of 4000 cells per well in 100 μl of media in collagen-coated 96-well plates (Revvity, #6055700). Sixteen to twenty-four hours after seeding, compounds were dispensed using the D300e digital dispenser (Tecan) to generate a multipoint dose–response curve, equalized to final DMSO concentration. After 24 h, cells were washed with phosphate buffered saline (PBS) and pre-extracted with 50 μl of ice-cold cytoskeletal (CSK) buffer [10 mM PIPES pH 6.8 (Sigma–Aldrich, P8203-50G), 100 mM NaCl (VWR, 27810.295), 300 mM sucrose (Sigma–Aldrich, S0389-500G), 1.5 mM MgCl2 (VWR, 8760.29), 5 mM EDTA (Sigma–Aldrich, E7889-100ML), 0.4% Triton […] (Sigma–Aldrich, T9285-500ML)], for 4 min on ice. Cells were then washed with PBS and fixed in 4% paraformaldehyde (PFA) (ChemCruz, sc-281692) for 10 min at room temperature.
as §1, with “bovine serum albumin (BSA)” for “BSA”, “1 h” for “45 min”, “markers (FEN1 or PARP1)” for “markers”, “in” for “in the”, “buffer, at room temperature for 4 h (FEN1) or” for “buffer,”, “4°C (PARP1).” for “4°C.”

C[C@H](Oc1nn2c(c(O)c1=O)C(=O)N1CCOC[C@@H]1C2)c1ccc2ccc(Cl)cc2c1 [MSC778]
Cell cycle effect ([1]; 24 h treatment, all four cell lines): titratable S-phase accumulation | EC50 (DLD-1 BRCA2KO cells; Homo sapiens, 168 h, DLD-1 BRCA2KO, 7 days, AlamarBlue, N = 3): 220 nM | Sensitivity of DLD-1 BRCA2KO relative to parental DLD-1 cells (DLD-1 BRCA2KO cells; more sensitive than isogenic DLD-1 wild-type): ~10 fold | EC50 ([2]; Homo sapiens, HEK293, resection independent reporter, HEK-293, 24 h, read-out: MMEJ inhibition EC50): 1000 nM | MMEJ potency relative to ART558 ([2]; lower potency than ART558, both reporters): 10–20 fold | EC50 ([3]; Homo sapiens, unchallenged HeLa cells): 1200 nM

C[C@@H](Oc1nn2c(c(O)c1=O)C(=O)N1CCOC[C@@H]1C2)c1ccc2ccc(Cl)cc2c1 [MSC781]
Cell cycle effect ([1]; 3 µM, HRD panel and EWS panel (U-2 OS, RD-ES, MHH-ES-1)): not perturbed | Sensitivity of cell lines (viability) (DLD-1 BRCA2KO cells; DLD-1 and DLD-1 BRCA2KO, 7 days, AlamarBlue, compared with MSC778): much less sensitive | Inhibited MMEJ ([2]; both reporters, HEK-293): not | Chromatin enrichment (of either FEN1 or PARP1) and DNA damage signalling ([3]; HeLa cells): not enhanced

— PMC12684391, “Mechanistic insights into the monotherapy and combination potential of FEN1 inhibition in cancer therapy” (Nucleic Acids Research, 2025)
